Laboratory results taken from US20210198277A1, “AMINE-SUBSTITUTED ARYL OR HETEROARYL COMPOUNDS” (Epizyme, Inc., priority 2016, published 2021).

How the values were obtained:
human EHMT2 913-1193 = molecular target: T1, human EHMT2 913-1193 (Homo sapiens, UniProt Q96KQ7); experiment: EHMT2 enzyme assay on histone peptide substrate (EHMT2 PEP); assay type: biochemical; conditions: Table III; read-out: EHMT2 PEP (IC50 μM)
T1 construct: recombinant purified human EHMT2 913-1193, Viva; purchased Viva
T1 sequence (Q96KQ7 913-1193): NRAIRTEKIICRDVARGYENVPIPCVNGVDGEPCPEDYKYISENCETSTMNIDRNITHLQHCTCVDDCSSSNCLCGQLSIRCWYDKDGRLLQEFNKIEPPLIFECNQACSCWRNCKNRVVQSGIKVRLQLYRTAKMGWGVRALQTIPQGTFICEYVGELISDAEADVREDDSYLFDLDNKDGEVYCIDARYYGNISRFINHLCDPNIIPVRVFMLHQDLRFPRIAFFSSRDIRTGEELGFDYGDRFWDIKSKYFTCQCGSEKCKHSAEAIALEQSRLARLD
How it was run: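 Radiometric methyltransferase assay: 0.031 nM EHMT2 913-1193 preincubated 30 min with compound (10-point 3-fold series, top final 50 μM, 2% DMSO) in 20 mM Bicine pH 7.5, 1 mM TCEP. Biotinylated histone peptide methylated with ^3H-SAM for 60 min at room temperature, quenched with unlabeled SAM, captured on streptavidin Flashplates and counted.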

EHMT1 = molecular target: T2, EHMT1 (Homo sapiens, UniProt Q9H9B1); experiment: EHMT1 enzyme assay on peptide substrate (EHMT1 PEP); assay type: biochemical; conditions: Table III; read-out: EHMT1 PEP (IC50 μM)
T2 sequence (Q9H9B1 1-1298): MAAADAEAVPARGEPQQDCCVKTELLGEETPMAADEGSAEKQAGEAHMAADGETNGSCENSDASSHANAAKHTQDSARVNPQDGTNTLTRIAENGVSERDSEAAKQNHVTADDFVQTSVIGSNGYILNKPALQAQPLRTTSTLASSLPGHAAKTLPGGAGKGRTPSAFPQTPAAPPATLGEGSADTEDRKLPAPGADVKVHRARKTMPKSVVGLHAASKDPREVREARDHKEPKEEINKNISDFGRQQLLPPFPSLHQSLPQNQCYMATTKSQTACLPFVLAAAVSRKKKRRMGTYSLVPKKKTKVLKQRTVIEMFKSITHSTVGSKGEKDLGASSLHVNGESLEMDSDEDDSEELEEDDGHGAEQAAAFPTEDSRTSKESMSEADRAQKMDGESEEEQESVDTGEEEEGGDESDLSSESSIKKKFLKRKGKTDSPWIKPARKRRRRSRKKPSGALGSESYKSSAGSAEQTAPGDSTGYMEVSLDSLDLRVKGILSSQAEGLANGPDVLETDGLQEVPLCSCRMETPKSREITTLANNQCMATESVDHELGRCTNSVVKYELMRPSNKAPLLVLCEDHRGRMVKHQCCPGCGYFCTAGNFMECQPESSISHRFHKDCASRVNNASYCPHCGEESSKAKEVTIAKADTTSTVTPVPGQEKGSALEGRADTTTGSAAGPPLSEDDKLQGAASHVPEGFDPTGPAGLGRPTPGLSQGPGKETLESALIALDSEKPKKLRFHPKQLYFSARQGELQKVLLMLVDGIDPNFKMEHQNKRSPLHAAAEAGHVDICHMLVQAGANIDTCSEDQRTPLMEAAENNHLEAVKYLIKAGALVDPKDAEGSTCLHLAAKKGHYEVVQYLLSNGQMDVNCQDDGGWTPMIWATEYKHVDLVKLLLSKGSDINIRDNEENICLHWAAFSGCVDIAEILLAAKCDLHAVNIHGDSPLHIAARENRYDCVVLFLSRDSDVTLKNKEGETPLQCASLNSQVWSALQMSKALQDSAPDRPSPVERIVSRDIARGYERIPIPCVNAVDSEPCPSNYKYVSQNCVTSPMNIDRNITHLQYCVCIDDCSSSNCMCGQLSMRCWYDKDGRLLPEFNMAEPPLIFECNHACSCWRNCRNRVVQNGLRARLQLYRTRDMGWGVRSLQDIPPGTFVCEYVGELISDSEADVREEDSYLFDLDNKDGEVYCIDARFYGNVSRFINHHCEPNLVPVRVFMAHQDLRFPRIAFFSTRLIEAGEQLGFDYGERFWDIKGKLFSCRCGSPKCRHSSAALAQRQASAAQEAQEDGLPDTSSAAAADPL

Row | Structure (SMILES) | IC50 (human EHMT2 913-1193) [µM] | IC50 (EHMT1) [µM]
1 | CNc1cc(Nc2cc(OCCCN3CCCC3)c(OC)cn2)ccn1 [Compound 372] | < 0.1 | < 0.1
2 | COc1ccc(Nc2nccc3[nH]ncc23)cc1OCCCN1CCCC1 [Compound 373] | > 10 | > 10
3 | COc1ccc(Nc2ccnc3[nH]ccc23)cc1OCCCN1CCCC1 [Compound 374] | 1 to 10 | 1 to 10
4 | CC(C)Nc1ccnc(Nc2cccc(OCCCN3CC[C@@H](F)C3)c2)n1 [Compound 375] | > 10 | > 10
5 | COc1ccc(Nc2nccc(NC(C)C3CCOCC3)n2)cc1OCCCN1CCCC1 (stereo not drawn) [Compound 378] | 0.1 to 1 | 0.1 to 1
6 | CNc1ccnc(Nc2ccc(OC)c(OCCCN3CCCC3)c2)c1 [Compound 379] | 0.1 to 1 | 1 to 10
7 | CNc1ccnc(Nc2ccc3ccn(CCN4CCCC4)c(=O)c3c2)n1 [Compound 381] | 1 to 10 | > 10
8 | CNc1ccnc(Nc2cccc(COCCN3CCCC3)c2)n1 [Compound 383] | 1 to 10 | 1 to 10
9 | CNc1ccnc(Nc2ccc3cnn(CCN(C)C)c3c2)n1 [Compound 386] | > 10 | > 10
10 | CNc1ccnc(Nc2ccc3cnn(CCCN(C)C)c3c2)n1 [Compound 388, N^2-(1-(3-(dimethylamino)propyl)-1H-indazol-6-yl)-N^4-methylpyrimidine-2,4-diamine] | > 10 | > 10
11 | CNc1ccnc(Nc2ccc3c(C)nn(CCCN(C)C)c3c2)n1 [Compound 389] | > 10 | > 10
12 | CNc1cc(C)nc(Nc2cccc(OCCCN3CCCC3)c2)n1 [Compound 391] | 0.1 to 1 | 0.1 to 1
13 | CCNC(=O)c1cccc(Nc2nccc(NC)n2)c1 [Compound 394] | > 10 | > 10
14 | CCNC(=O)c1cc(Nc2nccc(NC)n2)ccc1Cl [Compound 396] | > 10 | 1 to 10
15 | CNc1ccnc(Nc2ccc(Cl)c(OCCCN3CCCC3)c2)n1 [Compound 398] | 0.1 to 1 | 0.1 to 1
16 | COc1ccc(Nc2ccc3cn(C)nc3n2)cc1OCCCN1CCCC1 [Compound 402] | > 10 | > 10
17 | CNc1ccnc(Nc2ccc3cn(CCN(C)C)nc3c2)n1 [Compound 404, N^2-(2-(2-(dimethylamino)ethyl)-2H-indazol-6-yl)-N^4-methylpyrimidine-2,4-diamine] | > 10 | > 10
18 | CNc1ccnc(Nc2ccc3cn(CCCN(C)C)nc3c2)n1 [Compound 405] | > 10 | > 10

Next, values leading:

Row | IC50 (human EHMT2 913-1193) [µM] | IC50 (EHMT1) [µM] | Structure (SMILES)
19 | 0.1 to 1 | 0.1 to 1 | CNc1ccnc(Nc2ccc(OC)c(COCCN3CCCC3)c2)n1 [Compound 382]
20 | > 10 | > 10 | CNc1cc(C#N)nc(Nc2ccc(OC)c(OCCCN3CCCC3)c2)n1 [Compound 384]
21 | 0.1 to 1 | 0.1 to 1 | CCc1cc(NC)nc(Nc2ccc(OC)c(OCCCN3CC[C@@H](F)C3)c2)n1 [Compound 385]
22 | 0.1 to 1 | < 0.1 | CNc1ccnc(Nc2ccc(OC)c(OCCCN(C)C)c2)n1 [Compound 387]
23 | 0.1 to 1 | 0.1 to 1 | CNc1ccnc(Nc2ccc(OC)c(OCCCN3CCCCC3)c2)n1 [Compound 390]
24 | 0.1 to 1 | 0.1 to 1 | COc1ccc(Nc2nccc(NCC(F)(F)F)n2)cc1OCCCN1CCCC1 [Compound 392]
25 | 0.1 to 1 | < 0.1 | CNc1ccnc(Nc2ccc(OC)c(OCC3CCN(C)C3)c2)n1 (stereo not drawn) [Compound 393]
26 | > 10 | > 10 | CCNC(=O)c1cc(Nc2nccc(NC)n2)ccc1OC [Compound 395]
27 | > 10 | > 10 | CNc1ccnc(Nc2cccc(N3CCC(N(C)C)C3)c2)n1 (stereo not drawn) [Compound 397]
28 | 1 to 10 | > 10 | CNc1ccnc(Nc2cccc(N3CCC(N)C3)c2)n1 (stereo not drawn) [Compound 400]
29 | 0.1 to 1 | 0.1 to 1 | CNc1ccnc(Nc2ccc(OC)c(COC3CCN(C)C3)c2)n1 (stereo not drawn) [Compound 407, N^2-(4-methoxy-3-(((1-methylpyrrolidin-3-yl)oxy)methyl)phenyl)-N^4-methylpyrimidine-2,4-diamine]
30 | 0.1 to 1 | 0.1 to 1 | CCN1CCC(COc2cc(Nc3nccc(NC)n3)ccc2OC)C1 (stereo not drawn) [Compound 408, N^2-(3-((1-ethylpyrrolidin-3-yl)methoxy)-4-methoxyphenyl)-N^4-methylpyrimidine-2,4-diamine]
31 | < 0.1 | < 0.1 | CNc1ccnc(Nc2ccc(OC)c(OCC3CCN(C(C)C)C3)c2)n1 (stereo not drawn) [Compound 409, N^2-(3-((1-isopropylpyrrolidin-3-yl)methoxy)-4-methoxyphenyl)-N^4-methylpyrimidine-2,4-diamine]
32 | 1 to 10 | 1 to 10 | CNc1ccnc(Nc2ccc(OC)c(OCC3CCN(CCOC)C3)c2)n1 (stereo not drawn) [Compound 410, N^2-(4-methoxy-3-((1-(2-methoxyethyl)pyrrolidin-3-yl)methoxy)phenyl)-N^4-methylpyrimidine-2,4-diamine]
33 | < 0.1 | < 0.1 | CNc1ccnc(Nc2ccc(OC)c(OCC3CCN(C4CC4)C3)c2)n1 (stereo not drawn) [Compound 411, N^2-(3-((1-cyclopropylpyrrolidin-3-yl)methoxy)-4-methoxyphenyl)-N^4-methylpyrimidine-2,4-diamine]
34 | 0.1 to 1 | 0.1 to 1 | CNc1ccnc(Nc2ccc(OC)c(OCC3CCCN(C)C3)c2)n1 (stereo not drawn) [Compound 412, N^2-(4-methoxy-3-((1-methylpiperidin-3-yl)methoxy)phenyl)-N^4-methylpyrimidine-2,4-diamine]
35 | 0.1 to 1 | 0.1 to 1 | CNc1cc(C)nc(Nc2ccc(OC)c(OCC3CCCN(C)C3)c2)n1 (stereo not drawn) [Compound 413, N^2-(4-methoxy-3-((1-methylpiperidin-3-yl)methoxy)phenyl)-N^4,6-dimethylpyrimidine-2,4-diamine]
36 | < 0.1 | < 0.1 | CNc1ccnc(Nc2ccc(OC)c(OCCCN3CC(O)C3)c2)n1 [Compound 414, 1-(3-(2-methoxy-5-((4-(methylamino)pyrimidin-2-yl)amino)phenoxy)propyl)azetidin-3-ol]
37 | 0.1 to 1 | 0.1 to 1 | CCCN1CCC(COc2cc(Nc3nccc(NC)n3)ccc2OC)C1 (stereo not drawn) [Compound 420, N^2-(4-methoxy-3-((1-propylpyrrolidin-3-yl)methoxy)phenyl)-N^4-methylpyrimidine-2,4-diamine]
38 | 0.1 to 1 | 0.1 to 1 | CNc1cc(C)nc(Nc2ccc(OC)c(COC3CCN(C)C3)c2)n1 (stereo not drawn) [Compound 421, N^2-(4-methoxy-3-(((1-methylpyrrolidin-3-yl)oxy)methyl)phenyl)-N^4,6-dimethylpyrimidine-2,4-diamine]
39 | 0.1 to 1 | 0.1 to 1 | CNc1ccnc(Nc2ccc(OC)c(OCC3CCN(CC4CC4)C3)c2)n1 (stereo not drawn) [Compound 422, N^2-(3-((1-(cyclopropylmethyl)pyrrolidin-3-yl)methoxy)-4-methoxyphenyl)-N^4-methylpyrimidine-2,4-diamine]
